In US20260262643A1, “HERBICIDAL BENZOXAZINES” (FMC CORPORATION, priority 2022, published 2026):

How the values were obtained:
[1] = test system: galium; assay: Test C postemergence; format: in vivo, Galium aparine; settings: 10 days
Method in brief: (§1)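 Visual injury score, 0–100 (100 = complete control), taken 10 days after treatment relative to untreated controls. Pre: directed spray onto soil over sown seeds. Post: foliar spray at one- to two-leaf stage, 2–10 cm. Solvent/surfactant formulation; loam–sand soil; greenhouse.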

[2] = test system: horseweed; assay: Test C postemergence; format: in vivo, Erigeron canadensis; settings: 10 days
Method in brief: as §1

[3] = test system: pigweed, palmer; assay: Test C preemergence; format: in vivo, Amaranthus palmeri; settings: 0 to 100 scale (0 no effect, 100 complete control)
Method in brief: as §1

[4] = test system: rice; assay: Test D flooded paddy test; format: in vivo, Oryza sativa; settings: 250 g ai/ha, applied to paddy water, visual rating after 13 to 14 days, scale 0 to 100 (0 no effect, 100 complete control)
Method in brief: (§2)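 Post-flood water application at the 2-leaf stage; 3 cm flood depth kept constant; visual control rating 0–100 after 13–14 days greenhouse growth.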

[5] = test system: ryegrass, Italian; assay: Test C preemergence; format: in vivo, Lolium multiflorum; settings: 0 to 100 scale (0 no effect, 100 complete control)
Method in brief: as §1

[6] = test system: ragweed; assay: Test C preemergence; format: in vivo, Ambrosia artemisiifolia; settings: 0 to 100 scale (0 no effect, 100 complete control)
Method in brief: as §1

[7] = test system: sedge, umbrella; assay: Test D flooded paddy test; format: in vivo, Cyperus difformis; settings: 250 g ai/ha, applied to paddy water, visual rating after 13 to 14 days, scale 0 to 100 (0 no effect, 100 complete control)
Method in brief: as §2

[8] = test system: corn; assay: Test C postemergence; format: in vivo, Zea mays; settings: 10 days
Method in brief: as §1

[9] = test system: barnyardgrass; assay: Test D flooded paddy test; format: in vivo, Echinochloa crus-galli; settings: 250 g ai/ha, applied to paddy water, visual rating after 13 to 14 days, scale 0 to 100 (0 no effect, 100 complete control)
Method in brief: as §2

[10] = test system: kochia; assay: Test C postemergence; format: in vivo, Bassia scoparia; settings: 10 days
Method in brief: as §1

[11] = test system: wheat; assay: Test C preemergence; format: in vivo, Triticum aestivum; settings: 0 to 100 scale (0 no effect, 100 complete control)
Method in brief: as §1

[12] = test system: barnyardgrass; assay: Test C postemergence; format: in vivo, Echinochloa crusgalli; settings: 10 days
Method in brief: as §1

[13] = test system: oat, wild; assay: Test C postemergence; format: in vivo, Avena fatua; settings: 10 days
Method in brief: as §1

[14] = test system: green foxtail; assay: Test C postemergence; format: in vivo, Setaria viridis; settings: 10 days
Method in brief: as §1

[15] = test system: kochia; assay: Test C preemergence; format: in vivo, Bassia scoparia; settings: 0 to 100 scale (0 no effect, 100 complete control)
Method in brief: as §1

[16] = test system: pigweed, palmer; assay: Test C postemergence; format: in vivo, Amaranthus palmeri; settings: 10 days
Method in brief: as §1

[17] = test system: oat, wild; assay: Test C preemergence; format: in vivo, Avena fatua; settings: 0 to 100 scale (0 no effect, 100 complete control)
Method in brief: as §1

[18] = test system: blackgrass; assay: Test C postemergence; format: in vivo, Alopecurus myosuroides; settings: 10 days
Method in brief: as §1

[19] = test system: ryegrass, Italian; assay: Test C postemergence; format: in vivo, Lolium multiflorum; settings: 10 days
Method in brief: as §1

[20] = test system: barnyardgrass; assay: Test C preemergence; format: in vivo, Echinochloa crusgalli; settings: 0 to 100 scale (0 no effect, 100 complete control)
Method in brief: as §1

[21] = test system: soybean; assay: Test C postemergence; format: in vivo, Glycine max; settings: 10 days
Method in brief: as §1

[22] = test system: ducksalad; assay: Test D flooded paddy test; format: in vivo, Heteranthera limosa; settings: 250 g ai/ha, applied to paddy water, visual rating after 13 to 14 days, scale 0 to 100 (0 no effect, 100 complete control)
Method in brief: as §2

[23] = test system: ragweed; assay: Test C postemergence; format: in vivo, Ambrosia artemisiifolia; settings: 10 days
Method in brief: as §1

[24] = test system: corn; assay: Test C preemergence; format: in vivo, Zea mays; settings: 0 to 100 scale (0 no effect, 100 complete control)
Method in brief: as §1

[25] = test system: wheat; assay: Test C postemergence; format: in vivo, Triticum aestivum; settings: 10 days
Method in brief: as §1

[26] = test system: green foxtail; assay: Test C preemergence; format: in vivo, Setaria viridis; settings: 0 to 100 scale (0 no effect, 100 complete control)
Method in brief: as §1

[27] = test system: soybean; assay: Test C preemergence; format: in vivo, Glycine max; settings: 0 to 100 scale (0 no effect, 100 complete control)
Method in brief: as §1

[28] = test system: blackgrass; assay: Test C preemergence; format: in vivo, Alopecurus myosuroides; settings: 0 to 100 scale (0 no effect, 100 complete control)
Method in brief: as §1

[29] = 125 g ai/ha, postemergence, 0 to 100 scale, 0 no effect, 100 complete control
[30] = Postemergence, 500 g ai/ha, visual 0 to 100 scale (0 no effect, 100 complete control)
[31] = Preemergence, 500 g ai/ha, visual rating after 10 days
[32] = Test C, preemergence, 125 g ai/ha

C[C@H]1CN(C(=O)c2cc(-n3cnc(C4CCC4)n3)cc3c2OCCO3)c2cccc(Cl)c2O1 [Compound 157]
Plant response rating, Galium [1, 29]: 100 | Plant response rating, Galium [1, 30]: 100 | Plant response rating, Horseweed [2, 29]: 30 | Plant response rating, Horseweed [2, 30]: 90 | Plant response rating, Pigweed, Palmer [3, 31]: 100 | Pigweed, Palmer plant response rating [3, 32]: 100 | Plant response rating, Rice (Flood) [4]: 20 | Plant response rating, Ryegrass, Italian [5, 31]: 90 | Ryegrass, Italian plant response rating [5, 32]: 70 | Plant response rating, Ragweed [6, 31]: 80 | Ragweed plant response rating [6, 32]: 90 | Plant response rating, Sedge, Umbrella (Flood) [7]: 45 | Plant response rating, Corn [8, 29]: 10 | Plant response rating, Corn [8, 30]: 20 | Plant response rating, Barnyardgrass (Flood) [9]: 15 | Plant response rating, Kochia [10, 29]: 90 | Plant response rating, Kochia [10, 30]: 100 | Plant response rating, Wheat [11, 31]: 30 | Wheat plant response rating [11, 32]: 0 | Plant response rating, Barnyardgrass [12, 29]: 30 | Plant response rating, Barnyardgrass [12, 30]: 70 | Plant response rating, Oat, Wild [13, 29]: 20 | Plant response rating, Oat, Wild [13, 30]: 20 | Plant response rating, Foxtail, Green [14, 29]: 70 | Plant response rating, Foxtail, Green [14, 30]: 90 | Plant response rating, Kochia [15, 31]: 90 | Kochia plant response rating [15, 32]: 20 | Plant response rating, Pigweed, Palmer [16, 29]: 90 | Plant response rating, Pigweed, Palmer [16, 30]: 100 | Plant response rating, Oat, Wild [17, 31]: 50 | Oat, Wild plant response rating [17, 32]: 0 | Plant response rating, Blackgrass [18, 29]: 60 | Plant response rating, Blackgrass [18, 30]: 70 | Plant response rating, Ryegrass, Italian [19, 29]: 30 | Plant response rating, Ryegrass, Italian [19, 30]: 80 | Barnyardgrass plant response rating ([20]; 125 g ai/ha, preemergence): 50 | Plant response rating, Barnyardgrass [20, 31]: 90 | Plant response rating, Soybean [21, 29]: 100 | Plant response rating, Soybean [21, 30]: 100 | Plant response rating, Ducksalad (Flood) [22]: 0 | Plant response rating, Ragweed [23, 29]: 100 | Plant response rating, Ragweed [23, 30]: 100 | Plant response rating, Corn [24, 31]: 0 | Corn plant response rating [24, 32]: 0 | Plant response rating, Wheat [25, 29]: 20 | Plant response rating, Wheat [25, 30]: 30 | Plant response rating, Foxtail, Green [26, 31]: 100 | Foxtail, Green plant response rating [26, 32]: 100 | Plant response rating, Soybean [27, 31]: 60 | Soybean plant response rating [27, 32]: 50 | Plant response rating, Blackgrass [28, 31]: 30 | Blackgrass plant response rating [28, 32]: 30
